What all share (test): biochemical
Holding throughout (type): biochemical

The target in experiment [1] is T1, 382 unique human kinases (Homo sapiens, UniProt Q05397).
T1 construct: purchased Reaction Biology (HotSpot contract assay)
The note with it: kinase FAK/PTK2, compound 10 uM; for remaining activity at 10 µM: read-out: % Enzyme Activity (relative to DMSO controls).

The target of experiment [2] is T2, 382 unique human kinases (Homo sapiens, UniProt P22607, K650Q).
T2 construct: purchased Reaction Biology (HotSpot contract assay)
T2 sequence (P22607 23-806 K650Q): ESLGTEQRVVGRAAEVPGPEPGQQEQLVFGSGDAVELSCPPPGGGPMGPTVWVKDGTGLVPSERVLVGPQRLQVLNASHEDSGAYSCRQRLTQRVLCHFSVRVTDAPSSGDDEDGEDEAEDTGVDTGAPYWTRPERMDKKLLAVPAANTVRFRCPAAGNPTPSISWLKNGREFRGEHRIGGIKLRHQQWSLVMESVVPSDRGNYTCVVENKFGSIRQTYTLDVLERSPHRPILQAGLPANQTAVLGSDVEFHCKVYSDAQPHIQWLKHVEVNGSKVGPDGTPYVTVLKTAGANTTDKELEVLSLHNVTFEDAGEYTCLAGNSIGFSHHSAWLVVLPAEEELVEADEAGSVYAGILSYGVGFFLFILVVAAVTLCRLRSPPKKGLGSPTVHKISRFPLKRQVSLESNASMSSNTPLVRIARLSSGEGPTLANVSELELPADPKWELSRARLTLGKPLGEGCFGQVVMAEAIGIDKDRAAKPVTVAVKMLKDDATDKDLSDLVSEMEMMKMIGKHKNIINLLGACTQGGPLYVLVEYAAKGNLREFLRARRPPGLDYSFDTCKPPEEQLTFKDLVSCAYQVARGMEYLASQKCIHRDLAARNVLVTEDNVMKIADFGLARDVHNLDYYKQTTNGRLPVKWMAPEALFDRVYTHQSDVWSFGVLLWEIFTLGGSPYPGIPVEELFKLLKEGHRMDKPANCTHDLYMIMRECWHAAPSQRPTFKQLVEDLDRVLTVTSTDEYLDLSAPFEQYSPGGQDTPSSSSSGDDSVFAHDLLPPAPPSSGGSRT
Particulars: kinase FGFR3 (K650Q), compound 10 uM; for remaining activity at 10 µM: read-out: % Enzyme Activity (relative to DMSO controls).

Experiment [3] addresses T3, 382 unique human kinases (Homo sapiens, UniProt P07949, A883F).
T3 construct: purchased Reaction Biology (HotSpot contract assay)
The note with it: kinase RET (A883F), compound 10 uM; for remaining activity at 10 µM: read-out: % Enzyme Activity (relative to DMSO controls).

The target in experiment [4] is T4, 382 unique human kinases (Homo sapiens, UniProt P00533, L858R).
T4 construct: purchased Reaction Biology (HotSpot contract assay)
Particulars: kinase EGFR (L858R), compound 10 uM; for remaining activity at 10 µM: read-out: % Enzyme Activity (relative to DMSO controls).

For experiment [5], the target named is T5, 382 unique human kinases (Homo sapiens, UniProt Q13237).
T5 construct: purchased Reaction Biology (HotSpot contract assay)
T5 sequence (Q13237 whole entry): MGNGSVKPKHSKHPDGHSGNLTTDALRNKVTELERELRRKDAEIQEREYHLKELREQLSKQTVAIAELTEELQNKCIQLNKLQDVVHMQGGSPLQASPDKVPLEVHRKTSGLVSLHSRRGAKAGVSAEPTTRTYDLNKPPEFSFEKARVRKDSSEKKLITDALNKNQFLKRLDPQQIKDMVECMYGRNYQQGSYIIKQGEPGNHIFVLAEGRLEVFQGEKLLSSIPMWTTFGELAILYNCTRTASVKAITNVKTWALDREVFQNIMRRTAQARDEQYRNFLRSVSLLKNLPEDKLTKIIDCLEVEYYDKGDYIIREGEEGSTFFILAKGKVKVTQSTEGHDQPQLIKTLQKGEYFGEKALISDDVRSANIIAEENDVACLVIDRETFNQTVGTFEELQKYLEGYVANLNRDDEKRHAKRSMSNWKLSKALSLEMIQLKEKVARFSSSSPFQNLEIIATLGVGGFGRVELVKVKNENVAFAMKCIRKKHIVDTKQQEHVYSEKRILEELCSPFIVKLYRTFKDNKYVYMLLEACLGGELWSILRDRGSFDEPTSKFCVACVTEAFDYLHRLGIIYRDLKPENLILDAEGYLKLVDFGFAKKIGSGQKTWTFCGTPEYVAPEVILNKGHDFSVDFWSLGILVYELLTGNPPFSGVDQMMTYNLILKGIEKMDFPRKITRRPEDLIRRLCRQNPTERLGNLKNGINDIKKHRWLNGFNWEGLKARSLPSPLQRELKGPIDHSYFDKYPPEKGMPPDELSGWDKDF
The note with it: PKG2/PRKG2; compound at 10 uM; duplicate values; read-out: % Enzyme Activity (relative to DMSO controls).

Experiment [6] has as its target T6, 382 unique human kinases (Homo sapiens, UniProt Q5S007).
T6 construct: purchased Reaction Biology (HotSpot contract assay)
The note with it: LRRK2, [ATP] 30 µM, compound 10 uM; for remaining activity at 10 µM: read-out: % Enzyme Activity (relative to DMSO controls).

The target in experiment [7] is T7, 382 unique human kinases (Homo sapiens, UniProt P00519, E255K).
T7 construct: purchased Reaction Biology (HotSpot contract assay)
Particulars: ABL1 (E255K), [ATP] 5 µM, compound 10 uM; for remaining activity at 10 µM: read-out: % Enzyme Activity (relative to DMSO controls).

Experiment [8] deals with T8, 382 unique human kinases (Homo sapiens, UniProt Q15418).
T8 construct: purchased Reaction Biology (HotSpot contract assay)
T8 sequence (Q15418 whole entry): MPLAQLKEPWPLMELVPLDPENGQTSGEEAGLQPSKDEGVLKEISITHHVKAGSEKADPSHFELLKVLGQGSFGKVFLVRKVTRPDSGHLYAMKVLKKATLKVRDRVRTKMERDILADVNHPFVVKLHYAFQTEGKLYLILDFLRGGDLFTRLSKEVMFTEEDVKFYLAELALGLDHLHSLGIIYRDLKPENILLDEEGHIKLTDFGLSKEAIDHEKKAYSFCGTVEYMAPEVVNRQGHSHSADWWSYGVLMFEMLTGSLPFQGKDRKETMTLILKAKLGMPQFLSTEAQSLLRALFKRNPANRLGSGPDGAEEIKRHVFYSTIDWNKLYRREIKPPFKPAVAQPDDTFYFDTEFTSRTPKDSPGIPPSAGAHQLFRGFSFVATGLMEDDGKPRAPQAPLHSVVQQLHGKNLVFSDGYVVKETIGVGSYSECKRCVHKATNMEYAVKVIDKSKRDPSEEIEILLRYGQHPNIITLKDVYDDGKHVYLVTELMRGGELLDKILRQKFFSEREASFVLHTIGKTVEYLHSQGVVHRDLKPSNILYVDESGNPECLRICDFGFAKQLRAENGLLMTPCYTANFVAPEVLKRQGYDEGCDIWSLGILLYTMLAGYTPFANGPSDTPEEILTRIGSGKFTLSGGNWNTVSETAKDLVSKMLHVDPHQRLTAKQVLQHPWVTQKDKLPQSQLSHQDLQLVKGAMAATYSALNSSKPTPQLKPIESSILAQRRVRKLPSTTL
The note with it: RSK1, [ATP] 20 µM, compound 10 uM; for remaining activity at 10 µM: read-out: % Enzyme Activity (relative to DMSO controls).

Experiment [9] concerns the target T9, 382 unique human kinases (Homo sapiens, UniProt P41743).
T9 construct: purchased Reaction Biology (HotSpot contract assay)
T9 sequence (P41743 1-596): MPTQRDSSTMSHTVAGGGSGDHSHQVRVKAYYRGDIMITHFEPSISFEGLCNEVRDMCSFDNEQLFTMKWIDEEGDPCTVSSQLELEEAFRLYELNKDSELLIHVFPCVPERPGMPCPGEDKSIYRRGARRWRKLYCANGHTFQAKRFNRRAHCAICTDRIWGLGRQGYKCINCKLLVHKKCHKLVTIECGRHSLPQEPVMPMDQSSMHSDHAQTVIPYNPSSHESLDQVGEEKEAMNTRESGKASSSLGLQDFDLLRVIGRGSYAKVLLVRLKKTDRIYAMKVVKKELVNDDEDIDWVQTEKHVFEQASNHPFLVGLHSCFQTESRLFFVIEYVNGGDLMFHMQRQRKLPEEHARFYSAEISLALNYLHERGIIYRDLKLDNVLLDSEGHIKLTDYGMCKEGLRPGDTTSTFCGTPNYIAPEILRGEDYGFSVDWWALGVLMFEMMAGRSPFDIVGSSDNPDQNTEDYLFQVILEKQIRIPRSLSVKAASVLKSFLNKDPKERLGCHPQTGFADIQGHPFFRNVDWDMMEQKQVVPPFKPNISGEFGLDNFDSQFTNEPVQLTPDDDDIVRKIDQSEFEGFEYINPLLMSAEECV
The note with it: PKCiota, 10 uM; for remaining activity at 10 µM: read-out: % Enzyme Activity (relative to DMSO controls).

The target of experiment [10] is T10, 382 unique human kinases (Homo sapiens, UniProt Q05655).
T10 construct: purchased Reaction Biology (HotSpot contract assay)
T10 sequence (Q05655 whole entry): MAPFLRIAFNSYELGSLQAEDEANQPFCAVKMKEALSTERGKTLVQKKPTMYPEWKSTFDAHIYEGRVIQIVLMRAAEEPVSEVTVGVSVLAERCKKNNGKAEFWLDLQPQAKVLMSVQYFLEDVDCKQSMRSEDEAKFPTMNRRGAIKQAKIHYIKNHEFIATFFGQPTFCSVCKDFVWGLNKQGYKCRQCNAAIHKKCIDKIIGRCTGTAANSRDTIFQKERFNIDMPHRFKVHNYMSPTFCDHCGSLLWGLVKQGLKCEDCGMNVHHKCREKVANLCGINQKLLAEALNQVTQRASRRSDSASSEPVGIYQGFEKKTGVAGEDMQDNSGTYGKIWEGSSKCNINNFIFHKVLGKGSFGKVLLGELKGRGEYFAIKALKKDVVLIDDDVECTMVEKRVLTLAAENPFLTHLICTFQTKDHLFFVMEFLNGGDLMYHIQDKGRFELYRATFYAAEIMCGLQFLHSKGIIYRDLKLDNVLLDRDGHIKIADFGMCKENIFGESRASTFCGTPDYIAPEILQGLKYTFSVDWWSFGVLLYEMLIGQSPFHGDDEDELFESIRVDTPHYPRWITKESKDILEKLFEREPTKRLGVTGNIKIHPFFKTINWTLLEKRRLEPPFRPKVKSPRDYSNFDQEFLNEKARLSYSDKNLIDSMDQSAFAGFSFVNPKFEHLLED
Particulars: PKCd, 10 uM; for remaining activity at 10 µM: read-out: % Enzyme Activity (relative to DMSO controls).

In experiment [11] the target is T11, 382 unique human kinases (Homo sapiens, UniProt P35626).
T11 construct: purchased Reaction Biology (HotSpot contract assay)
T11 sequence (P35626 1-688): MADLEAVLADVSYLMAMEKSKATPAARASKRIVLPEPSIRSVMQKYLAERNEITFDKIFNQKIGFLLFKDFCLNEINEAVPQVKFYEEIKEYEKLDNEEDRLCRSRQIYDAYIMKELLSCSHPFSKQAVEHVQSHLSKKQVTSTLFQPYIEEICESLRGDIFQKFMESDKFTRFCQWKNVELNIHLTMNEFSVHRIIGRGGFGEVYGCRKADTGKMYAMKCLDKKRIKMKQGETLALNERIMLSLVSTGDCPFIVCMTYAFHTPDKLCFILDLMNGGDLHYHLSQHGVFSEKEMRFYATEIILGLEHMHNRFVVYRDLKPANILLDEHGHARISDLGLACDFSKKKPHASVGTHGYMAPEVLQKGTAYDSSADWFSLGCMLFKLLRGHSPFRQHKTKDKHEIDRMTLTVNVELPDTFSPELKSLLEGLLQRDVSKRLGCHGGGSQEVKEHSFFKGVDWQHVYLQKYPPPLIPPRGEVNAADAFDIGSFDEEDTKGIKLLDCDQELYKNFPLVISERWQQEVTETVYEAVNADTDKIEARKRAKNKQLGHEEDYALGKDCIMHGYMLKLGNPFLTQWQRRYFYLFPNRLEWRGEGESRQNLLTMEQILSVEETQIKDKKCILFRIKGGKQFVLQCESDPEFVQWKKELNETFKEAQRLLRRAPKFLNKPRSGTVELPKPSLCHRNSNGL
Particulars: GRK3, 10 uM; for remaining activity at 10 µM: read-out: % Enzyme Activity (relative to DMSO controls).

Experiment [12] deals with T12, 382 unique human kinases (Homo sapiens, UniProt P00519, Q252H).
T12 construct: purchased Reaction Biology (HotSpot contract assay)
The note with it: ABL1 (Q252H), [ATP] 20 µM, compound 10 uM; for remaining activity at 10 µM: read-out: % Enzyme Activity (relative to DMSO controls).

Experiment [13] addresses T13, 382 unique human kinases (Homo sapiens, UniProt P42681).
T13 construct: purchased Reaction Biology (HotSpot contract assay)
T13 sequence (P42681 1-527): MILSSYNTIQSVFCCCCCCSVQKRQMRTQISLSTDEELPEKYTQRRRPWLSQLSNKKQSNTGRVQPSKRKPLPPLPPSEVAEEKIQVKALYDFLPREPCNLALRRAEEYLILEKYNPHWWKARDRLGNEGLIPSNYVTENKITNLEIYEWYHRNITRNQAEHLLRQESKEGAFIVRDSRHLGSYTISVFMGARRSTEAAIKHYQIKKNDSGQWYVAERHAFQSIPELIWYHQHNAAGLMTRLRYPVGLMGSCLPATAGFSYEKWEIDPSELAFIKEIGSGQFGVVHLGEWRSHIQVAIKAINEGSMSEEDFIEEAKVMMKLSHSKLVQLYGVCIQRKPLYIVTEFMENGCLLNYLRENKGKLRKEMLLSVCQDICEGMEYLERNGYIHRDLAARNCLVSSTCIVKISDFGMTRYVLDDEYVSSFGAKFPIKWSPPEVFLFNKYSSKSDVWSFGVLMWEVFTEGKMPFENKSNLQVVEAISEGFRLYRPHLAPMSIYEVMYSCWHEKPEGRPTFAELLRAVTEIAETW
Particulars: TXK, [ATP] 30 µM, compound 10 uM; for remaining activity at 10 µM: read-out: % Enzyme Activity (relative to DMSO controls).

T3 sequence (P07949 29-1114 A883F): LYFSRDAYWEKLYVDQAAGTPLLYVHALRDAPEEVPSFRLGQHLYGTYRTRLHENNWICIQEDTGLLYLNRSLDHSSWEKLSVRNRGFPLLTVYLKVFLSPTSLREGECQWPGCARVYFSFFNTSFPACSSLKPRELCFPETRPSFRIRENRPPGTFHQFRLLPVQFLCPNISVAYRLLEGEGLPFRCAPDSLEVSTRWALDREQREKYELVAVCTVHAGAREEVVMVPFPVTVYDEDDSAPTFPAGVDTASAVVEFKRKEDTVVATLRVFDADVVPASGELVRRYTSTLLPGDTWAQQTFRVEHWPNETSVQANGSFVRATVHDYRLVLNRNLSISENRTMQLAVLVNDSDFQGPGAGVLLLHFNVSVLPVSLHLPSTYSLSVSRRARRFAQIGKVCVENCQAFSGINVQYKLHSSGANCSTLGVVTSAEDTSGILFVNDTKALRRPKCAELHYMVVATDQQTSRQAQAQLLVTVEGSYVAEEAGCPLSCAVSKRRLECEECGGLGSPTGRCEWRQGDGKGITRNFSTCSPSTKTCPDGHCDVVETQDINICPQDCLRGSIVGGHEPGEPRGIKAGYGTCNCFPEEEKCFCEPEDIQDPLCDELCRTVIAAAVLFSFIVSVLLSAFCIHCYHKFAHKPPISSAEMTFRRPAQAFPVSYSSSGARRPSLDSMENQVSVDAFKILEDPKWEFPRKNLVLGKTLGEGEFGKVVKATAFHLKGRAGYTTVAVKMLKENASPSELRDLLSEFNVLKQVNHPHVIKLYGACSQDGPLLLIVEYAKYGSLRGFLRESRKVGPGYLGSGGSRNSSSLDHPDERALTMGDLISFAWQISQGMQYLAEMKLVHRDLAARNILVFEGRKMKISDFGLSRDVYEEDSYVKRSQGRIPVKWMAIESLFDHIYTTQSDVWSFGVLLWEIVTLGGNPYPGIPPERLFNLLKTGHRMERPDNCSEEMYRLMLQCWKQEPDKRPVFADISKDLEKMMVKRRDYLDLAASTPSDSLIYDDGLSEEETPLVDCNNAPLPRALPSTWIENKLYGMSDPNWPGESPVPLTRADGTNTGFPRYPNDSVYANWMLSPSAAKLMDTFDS
T1 sequence (Q05397 whole entry): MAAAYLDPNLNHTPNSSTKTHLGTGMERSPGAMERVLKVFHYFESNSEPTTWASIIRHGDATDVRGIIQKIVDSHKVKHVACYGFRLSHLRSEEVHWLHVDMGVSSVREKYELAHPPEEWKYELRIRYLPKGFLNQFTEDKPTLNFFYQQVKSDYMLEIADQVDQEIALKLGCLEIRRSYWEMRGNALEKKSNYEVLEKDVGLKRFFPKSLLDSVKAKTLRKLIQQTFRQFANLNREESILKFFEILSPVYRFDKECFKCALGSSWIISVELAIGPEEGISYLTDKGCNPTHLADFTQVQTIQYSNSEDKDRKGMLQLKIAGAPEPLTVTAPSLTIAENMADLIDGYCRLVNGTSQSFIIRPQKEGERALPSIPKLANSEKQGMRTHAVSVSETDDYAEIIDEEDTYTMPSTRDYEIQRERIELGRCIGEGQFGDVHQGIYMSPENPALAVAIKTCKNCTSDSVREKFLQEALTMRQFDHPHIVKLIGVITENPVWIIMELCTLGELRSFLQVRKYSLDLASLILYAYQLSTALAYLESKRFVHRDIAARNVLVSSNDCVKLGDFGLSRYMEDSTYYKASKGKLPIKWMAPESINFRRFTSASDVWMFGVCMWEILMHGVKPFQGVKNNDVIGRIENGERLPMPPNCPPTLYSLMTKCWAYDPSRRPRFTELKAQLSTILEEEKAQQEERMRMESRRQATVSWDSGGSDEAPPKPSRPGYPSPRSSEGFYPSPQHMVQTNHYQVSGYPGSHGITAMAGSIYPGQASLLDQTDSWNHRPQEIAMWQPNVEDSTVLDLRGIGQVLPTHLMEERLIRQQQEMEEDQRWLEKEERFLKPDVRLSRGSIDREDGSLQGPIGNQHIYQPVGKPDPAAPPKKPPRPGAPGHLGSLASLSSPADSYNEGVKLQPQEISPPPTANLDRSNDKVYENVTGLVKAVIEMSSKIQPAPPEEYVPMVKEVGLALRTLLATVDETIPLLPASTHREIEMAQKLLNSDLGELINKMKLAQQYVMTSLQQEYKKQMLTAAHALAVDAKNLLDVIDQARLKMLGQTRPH

For `CC(C)c1cc(-c2n[nH]c(=O)n2-c2ccc3c(ccn3C)c2)c(O)cc1O` [Ganetespib (STA9090)], the remaining activity at 10 µM on 382 unique human kinases [1] stood at 91.3%; on 382 unique human kinases [2] it was 84.5%; at 382 unique human kinases [3], 83.7%; at 382 unique human kinases [4], 88.8%; at 382 unique human kinases [5] it was 108%.

For the compound `CC(C)c1cc(-c2n[nH]c(=O)n2-c2ccc3c(ccn3C)c2)c(O)cc1O` [Ganetespib], the remaining activity at 10 µM on 382 unique human kinases [6] was 45.9%; on 382 unique human kinases [7] it was 4.77%; at 382 unique human kinases [8] it was 54.1%; on 382 unique human kinases [9], 94.9%; at 382 unique human kinases [10], 92%; at 382 unique human kinases [11], 109%. Further, the remaining activity at 10 µM at 382 unique human kinases [12] came to 3.59%; on 382 unique human kinases [13], 21.4%.

On to `CCNC(=O)c1noc(-c2cc(C(C)C)c(O)cc2O)c1-c1ccc(CN2CCOCC2)cc1` [Luminespib (AUY-922)], for which the “% Enzyme Activity (relative to DMSO controls)” value at 382 unique human kinases [1] was 96.62%; at 382 unique human kinases [2], 105.48%; at 382 unique human kinases [3], 95.34%; at 382 unique human kinases [4], 96.48%. Besides, the remaining activity at 10 µM on 382 unique human kinases [1] amounted to 98%; on 382 unique human kinases [2] it was 107%; on 382 unique human kinases [3] it was 96.4%; at 382 unique human kinases [4], 97%; on 382 unique human kinases [5], 104%.

As for `CCNC(=O)c1noc(-c2cc(C(C)C)c(O)cc2O)c1-c1ccc(CN2CCOCC2)cc1` [Luminespib], the “% Enzyme Activity (relative to DMSO controls)” value was 94.05% at 382 unique human kinases [6]; 14.20% at 382 unique human kinases [7]; 100.81% at 382 unique human kinases [8]; 94.98% on 382 unique human kinases [9]; 95.84% at 382 unique human kinases [10]; 96.02% at 382 unique human kinases [11]. Besides, the “% Enzyme Activity (relative to DMSO controls)” value on 382 unique human kinases [12] worked out at 5.25%; on 382 unique human kinases [13], 87.82%. The remaining activity at 10 µM on 382 unique human kinases [6] is 94.8%; on 382 unique human kinases [7], 14.7%; at 382 unique human kinases [8] it was 103%; on 382 unique human kinases [9], 96%; on 382 unique human kinases [10] it was 96.4%; at 382 unique human kinases [11], 97.9%. In addition, the remaining activity at 10 µM on 382 unique human kinases [12] was determined as 5.39%; on 382 unique human kinases [13], 88.1%.

The values above are taken from PMC8550792, “Evolution of kinase polypharmacology across HSP90 drug discovery” (Cell Chemical Biology, 2021).
